According to patent US11332483B2, “Naphthoquinone containing gold carbene complexes and methods of uses thereof” (BOARD OF REGENTS, THE UNIVERSITY OF TEXAS SYSTEM, priority 2017, dated 2022):

Experiments:
[1] = test system: A2780 ovarian (wt-p53, platinum sensitive); assay: Cell proliferation (MTT) assay in A2780 ovarian cells; type: cell-based; settings: Table 3; error is standard error of the mean
Procedure: (§1) Further anti-proliferation studies were carried out with complex 1 and its naphthoquinone component 4[H][Cl] using the following cell lines: A2780 ovarian (a wt-p53 cell line sensitive to platinum treatment), 2780CP ovarian (isogenic to A2780 but expressing multi-drug resistance (MDR)), and PC-3 prostate (p53 null) (Table 3).
(§2) Cells were harvested and seeded into 96-well culture plates (Costar 07-200-90) in 100 μL of culture media. They were allowed to incubate overnight at 37° C. in the presence of 5% CO2. A549 was seeded at a density of 1000 cells/well, A2780 at 2500 cells/well, A2780CP at 3000 cells/well, and PC-3 at 2000 cells/well. The next day, appropriate serial dilutions of drug stocks in culture media were made. To each well of a 96 well plate was added 100 μL of the appropriate solution. After a total of three days, a […] aliquot of 3 mg/mL tetrazolium dye, 344,5-dimethylthiazol-2-yl)-2,5-diphenyltetrazolium bromide (Alfa Aesar L11939) was added to each well, followed by a 4 hr incubation period at 37° C. The medium was then removed, the resulting formazan was dissolved in […] DMSO and the respective absorbances were measured at 560-650 nm using a microplate reader (Molecular Devices, Sunnyvale, Calif.). Absorbance values were corrected for background and then normalized to wells containing untreated cells to allow for plate-to-plate comparisons. […]

[2] = test system: A549 lung cancer cell xenografts in zebrafish; settings: 0.5 μM, bright field images
Procedure: (§3) First, zebrafish embryos were divided into 7 groups at an average of 65 embryos per group. […] Briefly, live human lung cancer cells (A549) were labeled with CM-DiI (red) and only live cells were transplanted via injection into the perivitelline space of 30 zebrafish embryos 24 hours post fertilization (hpf) (Sittaramane et al., 2015; Veinotte et al., 2014; Xie et al., 2015). Tumor inoculated zebrafish embryos were allowed to grow for one day till 48 hpf. This allows for establishment of the cancer cells in the host zebrafish embryos.

[3] = test system: thioredoxin reductase (TrxR) in A549 cells; assay: Lipoate reduction assay of thioredoxin reductase activity in live cells; type: cell-based, human
Procedure: To assess whether any or all of the present gold complexes could serve as TrxR inhibitors, standard tests involving the reduction of the oxidized form of the cell-permeable cofactor lipoate to its corresponding reduced form, dihydrolipoate, were carried out. […] [Cl] and 5 (cocktail), auranofin, and doxorubicin for 6 h. Post treatment, the live cells were monitored colorimetrically over 180 min for their ability to reduce lipoate (FIG. 5A).
Cells were harvested and seeded at a density of 10,000 cells/well A549 in 96-well culture plates. They were then incubated overnight at 37° C. and 5% CO2. The next day, appropriate serial dilutions of drug stock in culture media were performed, and 100 μL of the appropriate solution were added to each well. Cells were returned to the incubator for 6 h. Afterwards, the liquid was then removed from each well by vacuum aspiration and replaced by 100 μL of 5 mM lipoate (Tokyo Chemical Industry Co., Ltd. L0207) and 1 mM DTNB (Acros Organics 117540050) in HBSS (Life tech 14025-092). The absorbance of each well at […] was recorded immediately and once every 20 min for three h on a microplate reader (Molecular Devices, Sunnyvale, Calif.). Plates were covered with aluminum foil between readings.

[4] = test system: 2780CP ovarian (multi-drug resistant); assay: Cell proliferation (MTT) assay in 2780CP ovarian cells; type: cell-based; settings: Table 3; error is standard error of the mean
Procedure: as §1, §2

zebrafish embryos/larvae = test system: zebrafish embryos/larvae
Procedure: as §3
The embryonic development of zebrafish embryos was monitored at 48 hpf and 72 hpf to record the number of dead embryos.

A549 lung cancer cells = assay: ICP-MS detection of intracellular Au (cellular uptake); settings: A549 cells, in words
Procedure: Roughly 7−8×10^6 cells were grown to 70-80% confluence in T-75 cell culture flasks (Thermo 130190) and treated with respective compound in RPMI medium supplemented with 10% FBS and antibiotics for the desired incubation time. The medium was then removed and cells were washed with 8 mL 1× warm PBS. 2 mL 1×PBS was then added to each flask, and the cells were removed by scraping. Each cell suspension was then pipetted into a clean, labeled 15 mL centrifuge tube (Thermo 339650). Cells were pelleted by centrifuging at 1,000 rpm for 5 min in an Eppendorf 5804 with a swing-bucket rotor. The supernatant was removed by vacuum aspiration, and the pellet was resuspended in 50 μL autoclaved deionized water. Suspension/lysates were then kept at −80° C. until further use. After thawing, the lysates were then sonicated using a Branson Digital Sonifier, and 5 μL aliquots were taken for determination of protein content of the sample. Lysates were digested with 80 μL aqua regia and heated to 65° C. for 1 h. Digested lysates were diluted with 4 mL 3% Trace Metal Grade HCl and gold content was measured on a Perkin Elmer NexION 300× set to detect gold at 197 m/z. Gold concentrations were quantified using the linear range of a standard curve generated by serial dilution of an ICP-MS gold standard (Ricca MSAU1KH-100) in 3% HCl. Values were then normalized to protein content as determined using a Modified Lowry Protein Assay Kit (Thermo 23240) and known concentrations of bovine serum albumin (Fisher 9048-46-8).
The Modified Lowry Assay was used to determine the protein content of each sample for normalization purposes. The standard curve for each run was made from a 2-fold serial dilution of fresh 5 mg/mL BSA solution. Aliquots were diluted to within the linear range of the standard curve using autoclaved DI water, and subjected to the Modified Lowry Assay in round-bottomed 96-well clear plates (Fisher 12565500). […] All other aspects of the procedure were as detailed in the microplate procedure instructions that come with the kit.

Cc1cc(C)c(-n2c3c([n+](-c4c(C)cc(C)cc4C)[c]2[Au-][c]2n(-c4c(C)cc(C)cc4C)c4c([n+]2-c2c(C)cc(C)cc2C)C(=O)c2ccccc2C4=O)C(=O)c2ccccc2C3=O)c(C)c1.[Cl][Ag-][Cl] [Compound 1, [Bis(1,3-dimesityl-4,5-naphthoquino-imidazol-2-ylidene)-gold(I)] [Silver(I)dichloride]]
IC50 [1]: 26 ± 7 nM
non-specific cell death in the developing zebrafish larvae [2]: no non-specific cell death
TrxR activity by lipoate reduction, time and dose dependence ([3]; A549, in words): time (FIG. 12A) and dose (FIG. 12B) dependent inhibition of enzyme activity
inhibition of TrxR (lipoate reduction) ([3]; A549, low concentrations (0.1-0.6 μM), 6 h): inhibition of TrxR was apparent
IC50 [4]: 54 ± 6 nM
toxic effect relative to vehicle (zebrafish embryos/larvae; 0.5 μM): no observable toxic effect
lethality (zebrafish embryos/larvae; concentrations above 1 μM): 100%
LD50 (zebrafish embryos/larvae; zebrafish embryos/larvae): 0.75 µM
intracellular Au levels (ICP-MS) (A549 lung cancer cells): identical
